# Experimental data: PMC12495306 (RSC Medicinal Chemistry, 2025)
# What was measured:
# [1] = system: mice; details: cited from earlier work
# [2] = system: HEK293 cells; assay: Cell viability / cytotoxicity assay; assay type: cell-based, human; details: CellTiter-Glo, 18 h
# [3] = molecular target: T1, ARα2A (Homo sapiens, UniProt P08913); assay: ARα2A radioligand; assay type: binding
# T1 sequence (P08913 1-465): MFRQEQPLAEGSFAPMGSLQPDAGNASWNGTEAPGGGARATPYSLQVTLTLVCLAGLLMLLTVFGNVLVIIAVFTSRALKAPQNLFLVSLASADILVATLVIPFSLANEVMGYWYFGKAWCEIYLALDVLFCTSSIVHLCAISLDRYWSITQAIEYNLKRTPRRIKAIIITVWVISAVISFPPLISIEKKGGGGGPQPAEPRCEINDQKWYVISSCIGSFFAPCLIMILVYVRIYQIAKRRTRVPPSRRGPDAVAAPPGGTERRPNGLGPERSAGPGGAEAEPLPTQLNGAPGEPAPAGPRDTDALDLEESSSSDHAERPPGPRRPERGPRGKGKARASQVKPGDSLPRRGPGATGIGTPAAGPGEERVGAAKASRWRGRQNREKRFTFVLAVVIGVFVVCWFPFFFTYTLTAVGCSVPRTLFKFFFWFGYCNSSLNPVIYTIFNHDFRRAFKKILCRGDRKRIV
# [4] = molecular target: T2, ARα2B (Homo sapiens, UniProt P18089); assay: ARα2B radioligand; assay type: binding; details: for inhibition at 10 µM: read-out: ARα2B binding (% inhibition at 10 μM)
# T2 sequence (P18089 1-450): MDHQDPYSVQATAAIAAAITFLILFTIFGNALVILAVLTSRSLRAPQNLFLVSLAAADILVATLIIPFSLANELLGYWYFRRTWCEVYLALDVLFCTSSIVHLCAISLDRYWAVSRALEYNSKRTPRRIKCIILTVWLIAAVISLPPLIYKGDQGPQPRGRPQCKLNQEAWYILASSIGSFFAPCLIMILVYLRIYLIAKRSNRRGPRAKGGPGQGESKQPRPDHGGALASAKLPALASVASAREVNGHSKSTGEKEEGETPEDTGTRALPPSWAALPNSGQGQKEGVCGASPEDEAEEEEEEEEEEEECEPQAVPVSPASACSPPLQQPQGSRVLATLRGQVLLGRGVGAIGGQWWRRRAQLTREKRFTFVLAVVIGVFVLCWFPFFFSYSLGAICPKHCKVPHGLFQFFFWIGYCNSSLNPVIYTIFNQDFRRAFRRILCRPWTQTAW
# [5] = molecular target: T3, ARα2C (Homo sapiens, UniProt P18825); assay: ARα2C radioligand; assay type: binding
# T3 sequence (P18825 1-462): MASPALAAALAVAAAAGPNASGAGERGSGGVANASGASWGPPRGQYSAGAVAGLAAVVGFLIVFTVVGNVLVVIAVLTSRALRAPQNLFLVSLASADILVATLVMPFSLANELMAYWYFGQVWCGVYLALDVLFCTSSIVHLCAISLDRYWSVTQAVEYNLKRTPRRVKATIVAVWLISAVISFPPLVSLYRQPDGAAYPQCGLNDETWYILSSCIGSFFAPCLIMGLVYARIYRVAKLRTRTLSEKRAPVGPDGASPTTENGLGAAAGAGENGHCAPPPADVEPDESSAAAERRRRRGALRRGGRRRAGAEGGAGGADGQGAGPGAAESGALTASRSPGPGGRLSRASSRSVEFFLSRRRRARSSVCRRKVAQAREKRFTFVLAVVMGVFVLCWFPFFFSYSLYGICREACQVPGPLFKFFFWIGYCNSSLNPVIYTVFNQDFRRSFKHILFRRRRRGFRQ
# [6] = molecular target: T1, ARα2A; assay: GPCR Tango β-arrestin recruitment assay, ARα2A transfected HEK293; assay type: cell-based; details: for activation of ARα2A: agonist mode; for antagonism of ARα2A: in the presence of 300 nM norepinephrine
# [7] = molecular target: T2, ARα2B; assay type: cell-based; details: for activation of ARα2B: agonist mode; for antagonism of ARα2B: in the presence of 300 nM norepinephrine
# [8] = molecular target: T3, ARα2C; assay: GPCR Tango β-arrestin recruitment assay, ARα2C transfected HEK293; assay type: cell-based; details: for activation of ARα2C: agonist mode; for antagonism of ARα2C: in the presence of 300 nM norepinephrine
# [9] = system: Female Swiss Webster mice; assay: Rotarod sensorimotor study; assay type: in vivo; details: 40 mg kg−1 oral; measured after 10, 30 and 60 minutes; n = 8
# [10] = Pharmacokinetic study, blood and brain; assay type: in vivo, mice; details: 40 mg kg−1 oral
# [11] = system: Female Swiss Webster mice; assay: Open field test; assay type: in vivo; details: 40 mg kg−1 oral; 40 min after administration; n = 6
# [12] = system: mice; details: cited from earlier work; remark: listed apart in the source
# [13] = ARα2A binding Ki, competition with 3H-Rauwolscinein, concentration response
Compound,Cytotoxicity LD50 [2],"Ki [3, 13]",Ki [4],inhibition at 10 µM [4],Ki [5],activation of ARα2A [6],antagonism of ARα2A [6],activation of ARα2B [7],antagonism of ARα2B [7],activation of ARα2C [8],antagonism of ARα2C [8],sensorimotor inhibition on rotarod [9],sedation (open field test) [11],other results
CCC1(c2cnc[nH]2)Cc2ccccc2C1 [atipamezole],,,,,,,,,,,,,,locomotion (OFT) ([1]; 1 mg kg−1): did not modulate locomotion
"CC1N=C(c2ccccc2F)c2cc(Nc3ccccc3)ccc2NC1=O (stereo not drawn) [Compound 2, 7-Anilino-5-(2-fluorophenyl)-3-methyl-1,3-dihydro-2H-1,4-benzodiazepin-2-one]",100 ± 19 µM,3.93 µM,511 nM,90%,1130 nM,did not activate,antagonized,did not activate,antagonized,did not activate,antagonized,did not observe any sensorimotor inhibition,no sedation,"Ki ([3]; ARα2A Ki, rounded value): 3.9 µM; selectivity for α2B over the α2A subtype ([4]; from Ki values): 7.7 fold; selectivity for α2B over the α2C subtype ([4]; from Ki values): 2.2 fold; oral availability ([10]; mice): orally available; blood : brain ratios ([10]; 10, 30, 60 min): increased over time; concentration in blood and brain ([10]; as early as 10 min, n = 4): appreciable concentration of 2 in blood and brain that exceeded the affinity of 2 for the target receptor"
"COc1ccccc1Nc1ccc2c(c1)C(c1ccccc1F)=NC(C)C(=O)N2 (stereo not drawn) [Compound 17, 5-(2-Fluorophenyl)-7-(2-methoxyanilino)-3-methyl-1,3-dihydro-2H-1,4-benzodiazepin-2-one]",148 ± 12 µM,2.05 µM,607 nM,91%,738 nM,did not activate,antagonized,did not activate,antagonized,did not activate,antagonized,did not observe any sensorimotor inhibition,no sedation,
Cc1cccc([C@H](C)c2cnc[nH]2)c1C [dexmedetomidine],,,,,,,,,,,,,,ability of mice to stay on the rotating rod ([12]; i.p. doses of higher than 10 μg kg−1): reduced the ability of mice to stay on the rotating rod; activity scores (OFT) ([1]; 30 μg kg−1 (s.c.)): significantly reduced the activity scores
Cc1ccc(N(CC2=NCCN2)c2cccc(O)c2)cc1 [phentolamine],,,,,,,,,,,,,,ability of mice to complete a rotarod exercise ([12]; 4 mg kg−1 (i.p.)): do not usually alter the ability of mice to complete a rotarod exercise
